Columns and labels:
[1] = system: breast cancer 3366/Tam; assay: Therapeutic effectivity on tamoxifen-resistant breast cancer xenograft, tumor growth as T/C; type: in vivo; settings: 3366/Tam tumor on female NMRI nude mice; dose Tam/Lipid mg/kg/injection as per group (50/0, 50/25, 0/25), twice a day for 4 weeks
Protocol: (§1) Tam liposomes according to Example 4 are used for the in vivo treatment test. As a tumor model, breast cancer 3366/Tam is transplanted onto female NMRI nude mice and the treatment started when the tumor is palpable. The animals are given one dose of liposomes with 50 mg/kg Tam (and correspondingly 25 mg/kg OPP) twice a day for 4 weeks. As controls, liposomes containing no Tam are administered, in addition one group being treated with free Tam. The tumor growth in relation to the control group (physiological salt solution) is determined and portrayed as a percentage T/C, as shown in FIG. 1 and in Table 1. […] The living cells were determined with the MTT assay.

[2] = Alteration of body weight in the in vivo treatment test; settings: 3366/Tam-bearing female NMRI nude mice, dose Tam/Lipid mg/kg/injection as per group, twice a day for 4 weeks
Protocol: as §1

For `CC/C(=C(\c1ccccc1)c1ccc(OCCN(C)C)cc1)c1ccccc1` [tamoxifen], the “T/C (tumor growth in relation to the control group, physiological salt solution)” value [1] was 91% and the “Alteration of body weight % (day 29/51)” value [2] was −5%.

From patent US20030083313A1, “Means of tumor therapy” (priority 1998, published 2003)
